Laboratory results taken from patent publication US12508300B2, “Acylated GLP-1 derivative” (Sciwind Biosciences Co., Ltd., priority 2019, dated 2025).
*1 amine or outer side, *2 acyl side, *3 side chain or, on linkers, in order; H or OH if unused. Where a SMILES comes first, the peptide text is derived from it. Side-chain parts run from the residue outwards. The star is where a group is joined. C18 diacid = O=C(O)CCCCCCCCCCCCCCCCC(=O)*; γGlu = O=C(O)[C@H](CCC(=O)[*:2])N[*:1]; AEEA = NCCOCCOCC(=O)O

Key:
GLP1R = target: T1, GLP1R (Homo sapiens, UniProt P43220); test: In vitro activity determination in HEK293/CRE-Luc/GLP1R cells (luciferase reporter); format: cell-based
T1 construct: expressed in transfected cells; host or cells: HEK293
Experimental: Based on the fact that GLP-1 may bind to the receptor on the cell membrane, the HEK293/CRE-Luc/GLPIR cell line is constructed, the CAMP response elements (CRE) are activated through a series of signal transduction, the expression of downstream luciferase is initiated, and the amount of its expression is positively correlated with the biological activity of GLP-1. After adding the luciferase substrate, the chemiluminescence assay is performed to determine the luminous intensity, thereby determining the biological activity of GLP-1.
96-well cell culture plate (white and opaque), DMEM medium (GIBCO), 0.05% TRYPSIN-EDTA (GIBCO), fetal bovine serum (GIBCO), G418, hygromycin B, Bright-Glo™ Luciferase Assay System Kit (Promega), and HEK293/CRE-luc/GLP1R cells.
(1) Cell preparation: the cells are cultured until they grow vigorously and reach a sufficient quantity, discarding the culture medium in the culture bottle, adding 3 ml of Versene solution and shaking once; then adding 2 ml of 0.05% TRYPSIN-EDTA digestion solution, covering the bottle and standing for 1 minute, and then adding 6 ml of the assay medium to quench the digestion; after centrifugation at 1000 r/min for 3 min, the supernatant is discarded, and the cells are resuspended in 5 ml of assay medium and counted on a hemacytometer. The cell density is adjusted to an appropriate range for later use by using DMEM assay medium.
(2) Sample preparation: the derivatives of different GLP-1 analogues in Table 1 are diluted to 20 ng/ml with the assay medium, then gradient diluted into 8 concentrations in 96-well plates, and using the assay medium instead of the sample as the cell blank control. 2 duplicate wells are made for each dilution concentration.
(3) Culturing with addition of the samples: the prepared solutions of the control and test samples are transferred to a 96-well cell culture plate (white board), adding 50 μl of the solution to each well; then adding the prepared cell suspension, adding 50 μl of the suspension to each well; and then incubating for a certain period of time under the conditions of 37° C. and 5% CO2.
(4) Chemiluminescence assay: substrate is added, then taking out the 96-well cell culture plate, adding 100 μl of Bright Glo reagent to each well, and leaving in the dark for 3 min.
(5) Reading: determination is performed with a chemiluminescence microplate reader SpectraMax L, then reading the plate within 30 min, and recording the determined results.

db/db mice = test: Fasting blood glucose after single injection in type II diabetic db/db mice (FIG. 1); format: in vivo; conditions: 0.05 mg/kg s.c. single
Experimental: The dosage is 0.05 mg/kg for each, and the administration time is set as 0 h. Fasting blood glucose is measured after fasting for 6-8 h every day, and the fasting blood glucose after administration is measured every day until the fasting blood glucose value of each animal of the test group recovers to the value measured before administration. The blood glucose value measured before administration is called the basal blood glucose value, and is set as 0. Change of the fasting blood glucose (Δ: delta)=Blood glucose value after administration-Basal blood glucose value before administration.

T1 sequence (P43220 24-463, species assumed): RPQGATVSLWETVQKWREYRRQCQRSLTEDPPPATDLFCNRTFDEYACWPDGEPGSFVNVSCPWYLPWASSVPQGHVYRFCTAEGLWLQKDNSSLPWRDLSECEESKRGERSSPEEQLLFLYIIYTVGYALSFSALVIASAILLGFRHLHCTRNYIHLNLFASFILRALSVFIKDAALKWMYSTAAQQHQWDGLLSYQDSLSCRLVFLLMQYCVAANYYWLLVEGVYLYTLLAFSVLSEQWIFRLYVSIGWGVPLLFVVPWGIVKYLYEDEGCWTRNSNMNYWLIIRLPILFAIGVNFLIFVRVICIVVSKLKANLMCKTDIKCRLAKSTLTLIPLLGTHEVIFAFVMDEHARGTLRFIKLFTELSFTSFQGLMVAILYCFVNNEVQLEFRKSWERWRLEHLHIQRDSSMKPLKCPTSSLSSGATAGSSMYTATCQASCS

SMILES	in vitro activities (comparison in words) (GLP1R)	glucose-lowing effect compared with Semaglutide (FIG. 1) (db/db mice; day 4 and day 5)	glucose-lowing effect compared with Semaglutide (FIG. 1) (db/db mice; day 2)
CC[C@H](C)[C@H](NC(=O)[C@H](Cc1ccccc1)NC(=O)[C@H](CCC(=O)O)NC(=O)[C@H](CCCNC(=N)N)NC(=O)[C@H](C)NC(=O)[C@H](C)NC(=O)[C@H](CCCCNC(=O)COCCOCCNC(=O)COCCOCCNC(=O)CC[C@H](NC(=O)CCCCCCCCCCCCCCCCC(=O)O)C(=O)O)NC(=O)[C@H](CCC(=O)O)NC(=O)[C@H](CCC(=O)O)NC(=O)[C@H](CC(C)C)NC(=O)[C@H](Cc1ccc(O)cc1)NC(=O)[C@H](CO)NC(=O)[C@H](CO)NC(=O)[C@@H](NC(=O)[C@H](CC(=O)O)NC(=O)[C@H](CO)NC(=O)[C@@H](NC(=O)[C@H](Cc1ccccc1)NC(=O)[C@@H](NC(=O)CNC(=O)[C@H](CCC(=O)O)NC(=O)[C@@H](NC(=O)[C@@H](N)Cc1c[nH]cn1)[C@@H](C)CC)[C@@H](C)O)[C@@H](C)O)C(C)C)C(=O)N[C@@H](C)C(=O)N[C@@H](Cc1c[nH]c2ccccc12)C(=O)N[C@@H](CC(C)C)C(=O)N[C@H](C(=O)N[C@@H](CCCNC(=N)N)C(=O)NCC(=O)N[C@@H](CCCNC(=N)N)C(=O)NCC(=O)O)C(C)C [M9, N-ε^23-[2-(2-[2-(2-[2-(2-[4-(17-carboxyheptadecanoylamino)-4(s)-carboxybutyrylamino]ethoxy)ethoxy]acetylamino)ethoxy]ethoxy)acetyl](Ile^8Glu^22Lys^23Arg^26,34-GLP-1 (7-37)) peptide] (H-HIEGTFTSDVSSYLEEK([AEEA-AEEA-γGlu-C18 diacid])AAREFIAWLVRGRG-OH; N-terminus and C-terminus assumed)	comparable	better than that of Semaglutide	–
CC[C@H](C)[C@H](NC(=O)[C@H](Cc1ccccc1)NC(=O)[C@H](CCC(=O)O)NC(=O)[C@H](CCCNC(=N)N)NC(=O)[C@H](C)NC(=O)[C@H](C)NC(=O)[C@H](CCC(N)=O)NC(=O)[C@H](CCC(=O)O)NC(=O)[C@H](CCC(=O)O)NC(=O)[C@H](CC(C)C)NC(=O)[C@H](Cc1ccc(O)cc1)NC(=O)[C@H](CO)NC(=O)[C@H](CO)NC(=O)[C@@H](NC(=O)[C@H](CC(=O)O)NC(=O)[C@H](CO)NC(=O)[C@@H](NC(=O)[C@H](Cc1ccccc1)NC(=O)[C@@H](NC(=O)CNC(=O)[C@H](CCC(=O)O)NC(=O)[C@@H](NC(=O)[C@@H](N)Cc1c[nH]cn1)[C@@H](C)CC)[C@@H](C)O)[C@@H](C)O)C(C)C)C(=O)N[C@@H](CCCCNC(=O)COCCOCCNC(=O)COCCOCCNC(=O)CC[C@H](NC(=O)CCCCCCCCCCCCCCCCC(=O)O)C(=O)O)C(=O)N[C@@H](Cc1c[nH]c2ccccc12)C(=O)N[C@@H](CC(C)C)C(=O)N[C@H](C(=O)N[C@@H](CCCNC(=N)N)C(=O)NCC(=O)N[C@@H](CCCNC(=N)N)C(=O)NCC(=O)O)C(C)C [M14, N-ε^30-[2-(2-[2-(2-[2-(2-[4-(17-carboxyheptadecanoylamino)-4(s)-carboxybutyrylamino]ethoxy)ethoxy]acetylamino)ethoxy]ethoxy)acetyl](Ile^8Glu^22Lys^30Arg^26,34-GLP-1(7-37)) peptide] (H-HIEGTFTSDVSSYLEEQAAREFIK([AEEA-AEEA-γGlu-C18 diacid])WLVRGRG-OH; N-terminus and C-terminus assumed)	comparable	better than that of Semaglutide	–

More lines, main results first:

in vitro activities (comparison in words) (GLP1R)	SMILES	glucose-lowing effect compared with Semaglutide (FIG. 1) (db/db mice; day 4 and day 5)	glucose-lowing effect compared with Semaglutide (FIG. 1) (db/db mice; day 2)
comparable	CC[C@H](C)[C@H](NC(=O)[C@H](Cc1ccccc1)NC(=O)[C@H](CCC(=O)O)NC(=O)[C@H](CCCNC(=N)N)NC(=O)[C@H](C)NC(=O)[C@H](C)NC(=O)[C@H](CCCCNC(=O)COCCOCCNC(=O)COCCOCCNC(=O)CC[C@H](NC(=O)CCCCCCCCCCCCCCCCC(=O)O)C(=O)O)NC(=O)[C@H](CCC(=O)O)NC(=O)[C@H](CCC(=O)O)NC(=O)[C@H](CC(C)C)NC(=O)[C@H](Cc1ccc(O)cc1)NC(=O)[C@H](CO)NC(=O)[C@H](CO)NC(=O)[C@@H](NC(=O)[C@H](CC(=O)O)NC(=O)[C@H](CO)NC(=O)[C@@H](NC(=O)[C@H](Cc1ccccc1)NC(=O)[C@@H](NC(=O)CNC(=O)[C@H](CCC(=O)O)NC(=O)CNC(=O)[C@@H](N)Cc1c[nH]cn1)[C@@H](C)O)[C@@H](C)O)C(C)C)C(=O)N[C@@H](C)C(=O)N[C@@H](Cc1c[nH]c2ccccc12)C(=O)N[C@@H](CC(C)C)C(=O)N[C@H](C(=O)N[C@@H](CCCNC(=N)N)C(=O)NCC(=O)N[C@@H](CCCNC(=N)N)C(=O)NCC(=O)O)C(C)C [M11, N-ε^23-[2-(2-[2-(2-[2-(2-[4-(17-carboxyheptadecanoylamino)-4(s)-carboxybutyrylamino]ethoxy)ethoxy]acetylamino)ethoxy]ethoxy)acetyl](Gly^8Glu^22Lys^23Arg^26,34-GLP-1(7-37)) peptide] (H-HGEGTFTSDVSSYLEEK([AEEA-AEEA-γGlu-C18 diacid])AAREFIAWLVRGRG-OH; N-terminus and C-terminus assumed)	–	lower than that of Semaglutide
comparable	CC[C@H](C)[C@H](NC(=O)[C@H](Cc1ccccc1)NC(=O)[C@H](CCC(=O)O)NC(=O)[C@H](CCCNC(=N)N)NC(=O)[C@H](C)NC(=O)[C@H](C)NC(=O)[C@H](CCC(N)=O)NC(=O)[C@H](CCC(=O)O)NC(=O)[C@H](CCC(=O)O)NC(=O)[C@H](CC(C)C)NC(=O)[C@H](Cc1ccc(O)cc1)NC(=O)[C@H](CO)NC(=O)[C@H](CO)NC(=O)[C@@H](NC(=O)[C@H](CC(=O)O)NC(=O)[C@H](CO)NC(=O)[C@@H](NC(=O)[C@H](Cc1ccccc1)NC(=O)[C@@H](NC(=O)CNC(=O)[C@H](CCC(=O)O)NC(=O)CNC(=O)[C@@H](N)Cc1c[nH]cn1)[C@@H](C)O)[C@@H](C)O)C(C)C)C(=O)N[C@@H](CCCCNC(=O)COCCOCCNC(=O)COCCOCCNC(=O)CC[C@H](NC(=O)CCCCCCCCCCCCCCCCC(=O)O)C(=O)O)C(=O)N[C@@H](Cc1c[nH]c2ccccc12)C(=O)N[C@@H](CC(C)C)C(=O)N[C@H](C(=O)N[C@@H](CCCNC(=N)N)C(=O)NCC(=O)N[C@@H](CCCNC(=N)N)C(=O)NCC(=O)O)C(C)C [M16, N-ε^30-[2-(2-[2-(2-[2-(2-[4-(17-carboxyheptadecanoylamino)-4(s)-carboxybutyrylamino]ethoxy)ethoxy]acetylamino)ethoxy]ethoxy)acetyl](Gly^8Glu^22Lys^30Arg^26,34-GLP-1(7-37)) peptide] (H-HGEGTFTSDVSSYLEEQAAREFIK([AEEA-AEEA-γGlu-C18 diacid])WLVRGRG-OH; N-terminus and C-terminus assumed)	–	lower than that of Semaglutide
comparable	CC[C@H](C)[C@H](NC(=O)[C@H](Cc1ccccc1)NC(=O)[C@H](CCC(=O)O)NC(=O)[C@H](CCCNC(=N)N)NC(=O)[C@H](C)NC(=O)[C@H](C)NC(=O)[C@H](CCC(N)=O)NC(=O)[C@H](CCC(=O)O)NC(=O)[C@H](CCC(=O)O)NC(=O)[C@H](CC(C)C)NC(=O)[C@H](Cc1ccc(O)cc1)NC(=O)[C@H](CO)NC(=O)[C@H](CO)NC(=O)[C@@H](NC(=O)[C@H](CC(=O)O)NC(=O)[C@H](CO)NC(=O)[C@@H](NC(=O)[C@H](Cc1ccccc1)NC(=O)[C@@H](NC(=O)CNC(=O)[C@H](CCC(=O)O)NC(=O)[C@H](CO)NC(=O)[C@@H](N)Cc1c[nH]cn1)[C@@H](C)O)[C@@H](C)O)C(C)C)C(=O)N[C@@H](CCCCNC(=O)COCCOCCNC(=O)COCCOCCNC(=O)CC[C@H](NC(=O)CCCCCCCCCCCCCCCCC(=O)O)C(=O)O)C(=O)N[C@@H](Cc1c[nH]c2ccccc12)C(=O)N[C@@H](CC(C)C)C(=O)N[C@H](C(=O)N[C@@H](CCCNC(=N)N)C(=O)NCC(=O)N[C@@H](CCCNC(=N)N)C(=O)NCC(=O)O)C(C)C [M17, N-ε^30-[2-(2-[2-(2-[2-(2-[4-(17-carboxyheptadecanoylamino)-4(s)-carboxybutyrylamino]ethoxy)ethoxy]acetylamino)ethoxy]ethoxy)acetyl](Ser^8Glu^22Lys^30Arg^26,34-GLP-1(7-37)) peptide] (H-HSEGTFTSDVSSYLEEQAAREFIK([AEEA-AEEA-γGlu-C18 diacid])WLVRGRG-OH; N-terminus and C-terminus assumed)	–	lower than that of Semaglutide
